Converted amounts (≈) assume the structure as drawn.
Legend:
Escherichia coli = experiment: Antibacterial activity against Escherichia coli ATCC 25922 assessed as bacterial growth inhibition in presence of outermembrane permeabilizer, PMBN incubated for 16 to 18 hrs by broth microdilution method; type: functional; settings: time 16-18 hrs
Acinetobacter baumannii = experiment: Antibacterial activity against Acinetobacter baumannii BAA-1605 ssessed as bacterial growth inhibition in presence of outermembrane permeabilizer, PMBN incubated for 16 to 18 hrs by broth microdilution method; type: functional; settings: time 16-18 hrs
Staphylococcus aureus [1] = experiment: Antibacterial activity against methicillin-resistant Staphylococcus aureus NRS 10129 assessed as bacterial growth inhibition incubated for 16 to 18 hrs by broth microdilution method; type: functional; settings: time 16-18 hrs
Staphylococcus aureus [2] = experiment: Antibacterial activity against methicillin-resistant Staphylococcus aureus NRS 10191 assessed as bacterial growth inhibition incubated for 16 to 18 hrs by broth microdilution method; type: functional; settings: time 16-18 hrs
Staphylococcus aureus [3] = experiment: Antibacterial activity against methicillin-resistant Staphylococcus aureus NRS 10194 assessed as bacterial growth inhibition incubated for 16 to 18 hrs by broth microdilution method; type: functional; settings: time 16-18 hrs
Enterococcus [4] = experiment: Antibacterial activity against vancomycin-susceptible Enterococcus NR 31888 assessed as bacterial growth inhibition incubated for 16 to 18 hrs by broth microdilution method; type: functional; settings: time 16-18 hrs
Enterococcus [5] = experiment: Antibacterial activity against vancomycin-resistant Enterococcus NR 31909 assessed as bacterial growth inhibition incubated for 16 to 18 hrs by broth microdilution method; type: functional; settings: time 16-18 hrs
Enterococcus [6] = experiment: Antibacterial activity against vancomycin-resistant Enterococcus NR 31912 assessed as bacterial growth inhibition incubated for 16 to 18 hrs by broth microdilution method; type: functional; settings: time 16-18 hrs
Staphylococcus aureus [7] = experiment: Bactericidal activity against Staphylococcus aureus ATCC 29213 assessed as reduction in bacterial load at 1X MIC preincubated for 6 hrs followed by subculturing on TSA plate for 18 to 20 hrs by time-kill assay; type: functional; settings: time 24-26 hrs
Staphylococcus aureus [8] = experiment: Antibacterial activity against Staphylococcus aureus ATCC 29213 infected in mouse J774.A1 assessed as reduction in intracellular bacterial burden at 5XMIC incubated for 24 hrs followed by replating on TSA plate for 24 hrs by intracellular killing assay; type: functional; settings: time 48 hrs
Staphylococcus aureus [9] = experiment: Antibacterial activity against Staphylococcus aureus ATCC 29213 assessed as fractional inhibitory concentration in presence of daptomycin incubated for 24 hrs by checkerboard assay; type: functional
Staphylococcus aureus [10] = experiment: Synergistic antibacterial activity against Staphylococcus aureus ATCC 29213 assessed as fractional inhibitory concentration in presence of gentamycin incubated for 24 hrs by checkerboard assay; type: functional
Staphylococcus aureus [11] = experiment: Antibacterial activity against Staphylococcus aureus ATCC 29213 assessed as fractional inhibitory concentration in presence of minocycline incubated for 24 hrs by checkerboard assay; type: functional
Staphylococcus aureus [12] = experiment: Antibacterial activity against Staphylococcus aureus ATCC 29213 assessed as fractional inhibitory concentration in presence of rifampicin incubated for 24 hrs by checkerboard assay; type: functional
Staphylococcus aureus [13] = experiment: Bactericidal activity against Staphylococcus aureus ATCC 29213 assessed as reduction in bacterial load at 10X MIC preincubated for 6 hrs followed by subculturing on TSA plate for 18 to 20 hrs by time-kill assay; type: functional; parameters: scale not given: the % may be the effect or the level left; settings: time 24-26 hrs
Staphylococcus aureus [14] = experiment: Antibacterial activity against Staphylococcus aureus ATCC 29213 assessed as bacterial growth inhibition in presence of gentamycin incubated for 24 hrs by checkerboard assay; type: functional
Staphylococcus aureus [15] = experiment: Antibacterial activity against Staphylococcus aureus ATCC 29213 assessed as bacterial growth inhibition in presence of levofloxacin incubated for 24 hrs by checkerboard assay; type: functional
Staphylococcus aureus [16] = experiment: Antibacterial activity against Staphylococcus aureus ATCC 29213 assessed as bacterial growth inhibition in presence of meropenem incubated for 24 hrs by checkerboard assay; type: functional
Staphylococcus aureus [17] = experiment: Antibacterial activity against Staphylococcus aureus ATCC 29213 assessed as bacterial growth inhibition in presence of minocycline incubated for 24 hrs by checkerboard assay; type: functional
Staphylococcus aureus [18] = experiment: Antibacterial activity against Staphylococcus aureus ATCC 29213 assessed as bacterial growth inhibition in presence of rifampicin incubated for 24 hrs by checkerboard assay; type: functional
Staphylococcus aureus [19] = experiment: Synergistic bactericidal activity against Staphylococcus aureus ATCC 29213 assessed as reduction in bacterial load at 1X MIC preincubated for 6 hrs in presence of gentamycin followed by subculturing on TSA plate for 18 to 20 hrs by time-kill assay; type: functional; settings: time 24-26 hrs
Staphylococcus aureus [20] = experiment: microbe, parasite or virus in culture; settings: ATCC 29213
Description: Antibacterial activity against Staphylococcus aureus ATCC 29213 assessed as bacterial growth inhibition incubated for 16 to 18 hrs by broth microdilution method

With `CC(C)=CCc1c(O)cc2oc(-c3ccc(O)cc3O)c(CC=C(C)C)c(=O)c2c1O` [CUDRAFLAVONE C] the MIC (Escherichia coli) was 1 µg/mL, the MIC (Acinetobacter baumannii) was 4 µg/mL and the MIC (Staphylococcus aureus [1]) was 4 µg/mL (≈ 9.47 µM). For the same compound, the MIC (Staphylococcus aureus [2]) was 4 µg/mL (≈ 9.47 µM), the MIC (Staphylococcus aureus [3]) was 4 µg/mL (≈ 9.47 µM) and the MIC (Enterococcus [4]) was 4 µg/mL (≈ 9.47 µM). The MIC (Enterococcus [5]) was 4 µg/mL (≈ 9.47 µM), the MIC (Enterococcus [6]) was 4 µg/mL (≈ 9.47 µM) and the Activity (Staphylococcus aureus [7]) was 4 log10CFU/ml. The Activity (Staphylococcus aureus [8]) was 2 log10CFU/ml, the FIC (Staphylococcus aureus [9]) was 1.5 and the FIC (Staphylococcus aureus [10]) was 0.135. The FIC (Staphylococcus aureus [11]) was 1.5, the FIC (Staphylococcus aureus [12]) was 1.5 and the Activity (Staphylococcus aureus [13]) was 100%. It also gave an MIC (Staphylococcus aureus [14]) of 0.06 µg/mL, an MIC (Staphylococcus aureus [15]) of 2 µg/mL and an MIC (Staphylococcus aureus [16]) of 2 µg/mL. For the same compound, the MIC (Staphylococcus aureus [17]) was 2 µg/mL, the MIC (Staphylococcus aureus [18]) was 2 µg/mL and the Activity (Staphylococcus aureus [19]) was 9 log10CFU/ml. The MIC (Staphylococcus aureus [20]) was 2 µg/mL (≈ 4.73 µM).

Source: ChEMBL document CHEMBL4840338, “Cudraflavone C from Artocarpus hirsutus as a Promising Inhibitor of Pathogenic, Multidrug-Resistant S. aureus, Persisters, and Biofilms: A New Insight into a Rational Explanation of Traditional Wisdom” (J Nat Prod, 2021)
